According to US8367620B2, “Peptidic growth hormone secretagogues analog compounds and preparations thereof” (Centro de Ingenieria Genetica y Biotecnologia, priority 2006, dated 2013):
Like-named read-outs stand apart in the source and are kept apart here. Where a SMILES comes first, the peptide text is derived from it. Bridges are numbered along the chain shown (N, C = ends). Where no end group is shown, it is not given here.

Experiments:
[1] = system: Post-larvae of Litopenaeus vanamei; experiment: Growth stimulation in shrimps by dietary supplementation; type: in vivo; details: compound at 1% in post-larvae crustacean diet
Procedure: The peptidic GHS analogs were included at 1% in a post-larvae crustacean diet. Post-larvae of Litopenaeus vanamei were fed with the aforementioned diet in parallel with a control group with 1% BSA addition. The effect was measured with an optical micrometer and weighing the animals in a 0.1 mg precision scale.

[2] = system: Doxorubicin induced Dilated Cardiomyopathy; experiment: Reversion of Doxorubicin induced dilated cardiomyopathy in rats, dose-response; type: in vivo, Wistar rats; details: rats with Dx induced DCM; for mortality in the group respect to placebo or lower concentrations / total VEF recovery: 50 μg/kg; for DCM reversion two weeks after the treatment: 50 μg/kg to 500 μg/kg; for DCM reversion at 4 weeks of treatment: 100 to 500 μg/kg; for VEF recovery at lower concentrations: doses lower than 50 μg/kg
Procedure: To assess if there is any dose-response effect and reversion of DCM, Wistar rats were subjected to a treatment with 2 mg/kg of Doxorubicin (Dx) for 8 weeks, after the treatment all rats with a VEF drop higher than 40% were selected, divided in groups of n=8 and treated with different doses of compounds A221, A228 or A233 as follows: • 500 μg/kg, • 250 μg/kg, • 100 μg/kg, • 50 μg/kg, • 25 μg/kg, • 10 μg/kg • Saline Solution.
(FIG. 4, a A221, b A228 and c A233).

tilapias = experiment: Growth acceleration on juvenile tilapias treated intraperitoneally; type: in vivo; details: juvenile tilapia, ip 0.1 μg/g twice a week, three weeks
Procedure: The compounds were dissolved in a sodium phosphate (PBS) buffer solution and injected twice a week, during three weeks at 0.1 μg/g of humid fish weight (gbw). Compounds were applied individually to a group of 10 male tilapias with an average weight of 60.41±10.36 g and a control group with an average weight of 60.58±19.67 g was receiving PBS only as a control, measuring the average weight every week, all animals in the experiment were labelled with microchips (Stoelting Co. Wood Dale, USA.). for proper identification.

[3] = system: Litopenaeus vanamei post-larvae; experiment: Growth of shrimp post-larvae fed Artemia-bioencapsulated compounds; type: in vivo; details: Artemia bioencapsulated (10 mh/L, one hour), fed four times a day for one month
Procedure: The peptidic GHS analogs were bioencapsulated in Artemia to be fed to Litopenaeus vanamei post-larvae. For the encapsulation the compounds were added in a 10 mh/L left for an hour, harvested and washed. The animals were fed four times a day for one month while the control group was fed with BSA encapsulated Artemia The effect was measured with an optical micrometer and weighing the animals in a 0.1 mg precision scale.

[4] = system: primary cultures of granular cerebellum cells; type: cell-based, Wistar rats
Procedure: Primary cultures of granular cerebellum cells were obtained from 7-9 days Wistar rats. After a rapid dissection, rat cerebellums were submerged in a cold solution and meningeal membranes were removed, each organ was transferred to a 2-3 ml fresh medium solution and finely sliced. Cells were dissociated using a Pasteur pipette and filtered through a nylon […] membrane (Falcon, Franklin Lakes, N.J.). The number of viable cells was determined by cell counting in a hematocytometer with tripan blue as a marker. Cells were cultured on polylysine covered 96 well plates at a density of 6250 cells in […] final volume. Cultures were kept at 37° C. in 5%. CO2 after 24 h, 10 μM of cytosine arabinofuranose (AraC; Sigma) was added to inhibit the proliferation of non-neuronal cells. The capacity of neural damage prevention was tested adding 500 μM hydrogen peroxide in different concentrations of peptidic GHS analog compounds, Cell survival was determined using the Promega non-radioactive cytotoxicity proliferation assay, Cell Titer 96 (Promega).

[5] = system: Doxorubicin induced Dilated Cardiomyopathy; experiment: Prevention of Doxorubicin induced myocardial failure in rats (VEF, forced swimming); type: in vivo, Wistar rats; details: for ventricular ejection fraction (VEF) with respect to the healthy control: rats, Dx 2 mg/kg 8 weeks plus compound ip 500 μg/Kg, placebo VEF drop about 40%; for survival after forced swimming: Dx treated rats, compound ip 500 μg/Kg, 4° C. water 30 minutes, Dx-saline 45%
Procedure: To reproduce the physiopathogenic effects of a Dilated Cardiomyopathy (DCM) female Wistar rats of 160 g were treated with 2 mg/kg Doxorubicin (Dx) during 8 weeks. A group of this rats was also treated in parallel with compounds A221, A228 or A233 intraperitoneally at 500 μg/Kg during the 8 weeks of Dx treatment, another Dx treated group was also receiving saline solution as a placebo, and as a healthy control for the experiment another group of untreated Wistar rats of the same age was used. After the 8 week treatment all the rats were tested with an echocardiogram, to test the ventricular functionality and assess the ventricular ejection fraction (VEF).

lysozyme = experiment: Lysozyme levels in tilapia larvae treated by immersion; type: in vivo, Oreochromis sp.; details: immersion 100 μg/L
Procedure: (§1) Growth stimulation experiments on tilapia Oreochromis sp. larvae were performed evaluating groups of 100 larvae with 0.01 g average, using the peptidic GHS analogs, in a 100 μg/L concentration, twice a week using an immersion time of one hour.
During this experiment lysozyme levels were also monitored and an increase of this immunity marker was obtained in the treated animals as shown in table 8.

Litopenaeus vanamei [6] = experiment: Shrimp dipping experiment in production conditions; type: in vivo
Procedure: (§2) Shrimp larvae were subjected two four dips, for one hour every three days with different peptidic GHS analogs at 0.1 g/L. The control group was subjected to the same frequency of dipping with 1 mg/L BSA.
This experiment was also performed in production conditions for compounds A221, A228 y A233, with a 20% of higher survival compared with the controls, keeping a stimulation of 110% on the weight and 30% in the size, showing on the treated animals a better homogeneity on the size distribution with only a 30% and a 8% of variation coefficient in weight and size respectively, on contras with a 77% and 30% in the non treated group.

Litopenaeus vanamei [7] = experiment: Growing of shrimp larvae by dipping in solution of the compounds; type: in vivo; details: four dips of one hour every three days, 0.1 g/L
Procedure: as §2

PC12 cells = type: cell-based
Procedure: PC12 cells were stored in 75 cm^2 culture flasks on DMEM containing 5% bovine foetal serum and 10% horse serum, with 50 μg/ml gentamicin. Cells were incubated at 37° C. in 5% CO2. To induce differentiation cells were transferred at a density of 1×10^4 to polylysine covered 96 well plates in NGF supplemented DMEM media for 7 days, with medium replacement every 2-3 days. After differentiation cells were incubated with peptidic GHS analog compounds, at different concentrations for 72 h. Cell survival and proliferation was determined using the Promega non-radioactive cytotoxicity proliferation assay, Cell Titer 96, based in the conversion of 3-(4,5-dimethylthiazole-2-yl)-2,5-diphenyltetrazolium bromide (MTT) in to a spectrophotometrically detectable product. After deprivation of NGF medium is removed and 15 μl of the DMEM dissolved dye is added, after 4 hours of 37° C. incubation 100 μl of the stopping solution is added and absorbance is measured at 570 nm

[8] = system: tilapia Oreochromis sp. larvae; experiment: Growth stimulation of tilapia larvae by immersion; type: in vivo; details: immersion 100 μg/L, one hour twice a week, three weeks
Procedure: as §1

IGF-I mRNA = IGF-I mRNA in liver and GH level of intraperitoneally injected tilapias; type: in vivo, tilapia; details: liver of intraperitoneally injected tilapias
Procedure: IGF-I mRNa was determined in the liver of intraperitoneally injected tilapias monitoring also the GH level time course, showing the peptidic GHS analog compounds as able to stimulate in fish the GH levels in the bloodstream and at incrementing the IGF-I mRNA levels after the injection of the compounds as shown in table 4.

[9] = 500 μM hydrogen peroxide, rat cerebellum granular cells, read-out: IC50 during the induced neuronal damage by Hydrogen Peroxide addition to a primary culture of neurons
[10] = differentiated PC12 cells, 72 h incubation, MTT, read-out: IC50 during the NGF deprivation induced neuronal death

Compound | Size Inc. (%), control group growing = 100% [1] [%] | mortality in the group respect to placebo or lower concentrations [2] | total VEF recovery [2] | DCM reversion two weeks after the treatment [2] | DCM reversion at 4 weeks of treatment [2] | VEF recovery at lower concentrations [2] | Weight Inc. (%), control group growing = 100% (tilapias) [%] | Size Inc. (%), control group growing = 100% [3] [%] | IC50 [4] [µM] | ventricular ejection fraction (VEF) with respect to the healthy control [5] | Lysozyme levels of the treated animals relative to the control group (lysozyme) | higher survival compared with the controls (Litopenaeus vanamei [6]) [%] | stimulation in the size (Litopenaeus vanamei [6]) [%] | stimulation on the weight (Litopenaeus vanamei [6]) [%] | Size Inc. (%), control group growing = 100% (Litopenaeus vanamei [7]) [%] | Weight Inc. (%), control group growing = 100% (Litopenaeus vanamei [7]) [%] | Weight Inc. (%), control group growing = 100% [8] [%] | Normalized IGF-I mRNA levels to a non related synthetic peptide control group (IGF-I mRNA) | IC50 [4, 9] [µM] | IC50 (PC12 cells; [10]) [µM] | other results
NCC(=O)N[C@@H](CO)C(=O)N[C@H]1CCCCNC(=O)C[C@@H](C(=O)N[C@@H](CO)C(=O)N2CCC[C@H]2C(=O)N[C@@H](CCC(=O)O)C(=O)N[C@@H](Cc2c[nH]cn2)C(=O)N[C@@H](CCC(N)=O)C(=O)O)NC(=O)[C@H](Cc2ccccc2)NC1=O [Compound A221, GSKFDSPEHQ] (H-GSKFDSPEHQ-OH; lactam 3-5; N-terminus and C-terminus assumed) | 130.0 | somehow effective to reduce mortality | not effective for the total VEF recovery | partially reverts DCM | DCM reversion is complete | do not recovered VEF | 98.0 | 130.2 | 1.8 | slightly modified VEF | 1.01 | 20 | 30 | 110 | 112.0 | 120.1 | 97.0 | 1.32 |  |  | IC50 (PC12 cells; 72 h): 2.02 µM
GKFGDLSPEHQ [Compound A228, L-amino acid peptide with internal side-chain cycle, SEC; ID NO: 8] | 140.0 | somehow effective to reduce mortality | not effective for the total VEF recovery | partially reverts DCM | DCM reversion is complete | do not recovered VEF | 130.6 | 140.0 |  | slightly modified VEF | 1.08 | 20 | 30 | 110 | 118.9 | 128.2 | 132.0 | 1.18 | 1.77 | 3.99 | survival after forced swimming [5]: 100%
GGEAGKLCPPRY [Compound A237, L-amino acid peptide with internal side-chain cycle, SEC; ID NO: 17] | 132.0 |  |  |  |  |  | 100.0 | 136.0 |  |  | 1.01 |  |  |  | 116.2 | 127.0 | 109.9 | 1.201 | 2.51 | 3.33 | 
GKFDSPEHQ [Compound A230] | 140.0 |  |  |  |  |  | 158.0 | 140.0 |  |  | 1.33 |  |  |  | 123.6 | 150.0 | 150.0 | 1.48 | 3.81 | 4.06 | 
GKFDLSPEHQ [Compound A233, L-amino acid peptide with internal side-chain cycle, SEC; ID NO: 13] | 140.1 | somehow effective to reduce mortality | not effective for the total VEF recovery | partially reverts DCM | DCM reversion is complete | do not recovered VEF | 165.0 | 140.0 |  | slightly modified VEF | 2.68 | 20 | 30 | 110 | 124.9 | 143.0 | 155.0 | 1.69 | 3.56 | 5 | survival after forced swimming [5]: 100%
STDFKPFAI [Compound A226, STDFKPFAI] | 130.4 |  |  |  |  |  | 122.4 | 132.0 | 3.58 |  | 1.17 |  |  |  | 112.2 | 120.1 | 120.4 | 1.13 |  |  | IC50 (PC12 cells; 72 h): 4.87 µM
